Measurements published in patent publication US7175872B2, “Pyridinium-Betain compounds for use as taste modulators” (Nestec S.A., priority 2002, dated 2007).
Where a name gives a salt, the structure may show the parent alone.

Assays:
bitter taste = conditions: in vivo; cited from earlier work
[1] = system: bitter taste of L-phenylalanine; assay: Bitter-blocking effect on L-phenylalanine (detection threshold, 1/1 mixtures); type: in vivo; conditions: for own taste: Pyridinium-Betaine alone; for Taste quality: conc. 32 mmol/L, mixtures 1/1 with L-Phe
Procedure: • Sensory panel training: […] Sensory analyses were performed in a sensory panel room at 22-25° C. on three different sessions. • Taste thresholds: The taste thresholds of the tastants or mixtures containing basic tastants plus Pyridinium-Betains were determined in a triangle test using Evian® mineral water as the solvent at a defined pH ([…] and H.-D. Belitz, Z. Lebensm. Unters. Forsch. 1975, 159, 65-72). The samples (3 mL) were presented in order of increasing concentrations (serial 1:1 dilutions). The threshold values evaluated in two different sessions were averaged. […] The taste intensities of aqueous (Evian®) solutions containing a basic tastant, such as glucose and MSG, for example, in constant concentrations and the compounds of the general formula (A), for example […], in various concentrations were compared with those of a solution containing the basic tastant only. To achieve this, triangle tests were performed with two glass vials containing the basic tastant in constant concentrations, and one glass vial containing a stepwise 1:1-diluted mixture of basic […]. […] The relative taste strength (taste enhancing factor) of a mixture containing the basic […] was related to the basic tastants glucose, MSG, or other tastants, respectively, as standard substances, and was determined as the ratio of the concentrations c of iso-intensely tasting solutions of the basic tastant, such as glucose (glc), and the mixture containing tastant plus Pyridinium-Betain, […])=[…] […] This taste enhancing effect is illustrated in examples. The tasteless Pyridinium-Betaines […] and Gabapyridaine, built from non-[…] amino acids, were tested for their bitter-blocking activity on L-phenylalanine.

[2] = system: bitter taste of coffee brew; assay: Bitterness reduction of coffee with Glypyridaine; type: in vivo; conditions: coffee brew 40 g/L plus 2.0 mmol/L Glypyridaine; coffee alone 5; scale 0 (no bitterness) to 5 (very bitter)
bitter taste of salicine = assay: Bitter intensity ranking with Glypyridaine: salicine; type: in vivo; conditions: scale 0-5
Source text: (§1) Instead of working with low concentrated solutions at the bitter threshold, another series of experiments use carried out using more concentrated solutions of various bitter compounds to evaluate the bitter-blocking properties of Pyridinium-Betaines based on non-chiral amino acids. […] The bitter-reducing effect was most pronounced with L-Phenylalanine, the dipeptide H-Gly-Leu-OH, and caffeine.

salty taste of NaCl [3] = assay: Salt taste detection threshold of NaCl/Pyridinium-Betaine mixtures (triangle test, sensory panel); type: in vivo
Procedure: • Sensory panel training: […] Sensory analyses were performed in a sensory panel room at 22-25° C. on three different sessions. • Taste thresholds: The taste thresholds of the tastants or mixtures containing basic tastants plus Pyridinium-Betains were determined in a triangle test using Evian® mineral water as the solvent at a defined pH ([…] and H.-D. Belitz, Z. Lebensm. Unters. Forsch. 1975, 159, 65-72). The samples (3 mL) were presented in order of increasing concentrations (serial 1:1 dilutions). The threshold values evaluated in two different sessions were averaged. […] The taste intensities of aqueous (Evian®) solutions containing a basic tastant, such as glucose and MSG, for example, in constant concentrations and the compounds of the general formula (A), for example […], in various concentrations were compared with those of a solution containing the basic tastant only. […] The relative taste strength (taste enhancing factor) of a mixture containing the basic […] was related to the basic tastants glucose, MSG, or other tastants, respectively, as standard substances, and was determined as the ratio of the concentrations c of iso-intensely tasting solutions of the basic tastant, such as glucose (glc), and the mixture containing tastant plus Pyridinium-Betain, […])=[…] […] This taste enhancing effect is illustrated in examples.

[4] = system: bitter taste of naringine; assay: Bitter intensity ranking with Glypyridaine: naringine; type: in vivo; conditions: scale 0-5
Source text: as §1

[5] = system: bitter taste of H-Gly-Leu-OH; assay: Bitter intensity ranking with Glypyridaine: H-Gly-Leu-OH; type: in vivo; conditions: scale 0-5
Source text: as §1, with “caffeine. For example the 10:1 mixture of L-Phenylalanine and […] was weaker in bitterness (score 3) as compared to pure L-Phenylalanine (score 5).” for “caffeine.”

bitter taste of caffeine = assay: Bitter intensity ranking with Glypyridaine: caffeine; type: in vivo; conditions: scale 0-5
Source text: as §1

[6] = system: bitter taste of L-phenylalanine; assay: Bitter intensity ranking with Glypyridaine: L-Phenylalanine; type: in vivo
Source text: as §1

salty taste of NaCl [7] = assay: Salt-intensity ranking of NaCl/Pyridinium-Betaine mixtures by sensory panel; type: in vivo; conditions: 20 mmol/L each, pH 7.0; for Salt-intensity: scale 0 (not salty) to 5 (very salty), reference NaCl-solution ranked as 1
Source text: The salt-intensities of various NaCl/Pyridinium-Betaine mixtures (20 mmol/L each) were compared to a 20 mmol/L NaCl standard solution. The sensory panel was asked to rank the salt-intensities of these solutions on a scale from 0 (not salty) to 5 (very salty), while the reference NaCl-solution was ranked as 1. As listed in Table 6, the most intense salty taste was found in the solution containing NaCl and Alapyridaine, as well as in the triple mixture with L-arginine. A slight impact was found for Argpyridaine and L-arginine.

## O=C1C=C(c2ccco2)C(CO)[n+]2cc([O-])c(Cc3ccco3)cc21 (stereo not drawn) [3-(2-furyl)-8-[(2-furyl)methyl]-4-hydroxymethyl-1-oxo-1H,4H-quinolizinium-7-olate]
Bitter taste
  bitter taste detection threshold: 0.00025 mmol/kg water

## O=C([O-])CCC[n+]1cc(O)ccc1CO [Gabapyridaine]
[1]
  own taste: tasteless
[1]; pH 7.0
  Taste quality: complete loss of the bitter taste

## O=C([O-])C[n+]1cc(O)ccc1CO [Glypyridaine, N-carboxymethyl-3-hydroxy-6-hydroxymethyl-pyridinium inner salt]
[2]
  bitter taste intensity of coffee: 2
Bitter taste of salicine; Salicine 0.8 mmol/L water, ratio to Glypyridaine 1:1
  Bitter taste intensity: 1
Bitter taste of salicine; Salicine 1.6 mmol/L water, ratio to Glypyridaine 1:1
  Bitter taste intensity: 2
Bitter taste of salicine; Salicine 3.2 mmol/L water, ratio to Glypyridaine 1:1
  Bitter taste intensity: 3
[1]
  own taste: tasteless
[1]; pH 7.0
  Taste quality: complete loss of the bitter taste
Salty taste of NaCl [3]; mixture with NaCl, pH 7.0
  Salt detection threshold: 2.0 mmol/kg water
  Taste quality: salty
Salty taste of NaCl [3]; mixture with NaCl, pH 7.0, vs NaCl in water 10.0 mmol/L
  Threshold decrease: 5.0
[4]; Naringine 0.06 mmol/L water, ratio to Glypyridaine 1:1
  Bitter taste intensity: 1
[4]; Naringine 0.13 mmol/L water, ratio to Glypyridaine 1:1
  Bitter taste intensity: 2
[4]; Naringine 0.25 mmol/L water, ratio to Glypyridaine 1:1
  Bitter taste intensity: 3
[5]; H-Gly-Leu-OH 30 mmol/L water, ratio to Glypyridaine 2:1
  Bitter taste intensity: 0.5
[5]; H-Gly-Leu-OH 30 mmol/L water, ratio to Glypyridaine 10:1
  Bitter taste intensity: 2
[5]; H-Gly-Leu-OH 60 mmol/L water, ratio to Glypyridaine 2:1
  Bitter taste intensity: 1
[5]; H-Gly-Leu-OH 60 mmol/L water, ratio to Glypyridaine 10:1
  Bitter taste intensity: 3
[5]; H-Gly-Leu-OH 120 mmol/L water, ratio to Glypyridaine 10:1
  Bitter taste intensity: 4
Bitter taste of caffeine; Caffeine 4 mmol/L water, ratio to Glypyridaine 1:1
  Bitter taste intensity: 0.5
Bitter taste of caffeine; Caffeine 4 mmol/L water, ratio to Glypyridaine 5:1
  Bitter taste intensity: 1.5
Bitter taste of caffeine; Caffeine 8 mmol/L water, ratio to Glypyridaine 1:1
  Bitter taste intensity: 1.5
Bitter taste of caffeine; Caffeine 8 mmol/L water, ratio to Glypyridaine 5:1
  Bitter taste intensity: 2
Bitter taste of caffeine; Caffeine 16 mmol/L water, ratio to Glypyridaine 1:1
  Bitter taste intensity: 2
Bitter taste of caffeine; Caffeine 16 mmol/L water, ratio to Glypyridaine 5:1
  Bitter taste intensity: 3
[6]; L-Phenylalanine 20 mmol/L water, ratio to Glypyridaine 1:1, scale 0-5
  Bitter taste intensity: 0
[6]; L-Phenylalanine 20 mmol/L water, ratio to Glypyridaine 10:1, scale 0-5
  Bitter taste intensity: 0.5
[6]; L-Phenylalanine 40 mmol/L water, ratio to Glypyridaine 1:1, scale 0-5
  Bitter taste intensity: 0
[6]; L-Phenylalanine 40 mmol/L water, ratio to Glypyridaine 10:1, scale 0-5
  Bitter taste intensity: 2
[6]; L-Phenylalanine 80 mmol/L water, ratio to Glypyridaine 1:1, scale 0-5
  Bitter taste intensity: 0.5
[6]; L-Phenylalanine 80 mmol/L water, ratio to Glypyridaine 10:1, scale 0-5
  Bitter taste intensity: 3

## N=C(N)NCCC[C@H](N)C(=O)O [L-Arginine (L-Arg), L-Arginine]
Salty taste of NaCl [7]
  Salt-intensity: 0.0

## N[C@@H](Cc1ccccc1)C(=O)O [L-Phenylalanine, reference compound]
[1]; pH 7.0
  Taste quality: bitter
  Detection threshold: 16.0 mmol/L water
[6]; L-Phenylalanine 20 mmol/L water, no Glypyridaine, scale 0 no bitterness to 5 strongly bitter
  Bitter taste intensity: 2
[6]; L-Phenylalanine 40 mmol/L water, no Glypyridaine, scale 0-5
  Bitter taste intensity: 4
[6]; L-Phenylalanine 80 mmol/L water, no Glypyridaine, scale 0-5
  Bitter taste intensity: 5

## [Cl-].[Na+] [NaCl, sodium chloride, reference compound]
Salty taste of NaCl [7]
  Taste quality: salty
  Salt-intensity: 1.0
Salty taste of NaCl [3]; NaCl alone
  threshold of salt (NaCl) in water: ^aThe threshold of salt (NaCl) in water is 10.0 mmol/L.
Salty taste of NaCl [3]; salt and mixtures with Alapyridaine enantiomers (Table 11), pH not stated
  Taste quality: salty
Salty taste of NaCl [3]; salty, salt and mixtures with Alapyridaine enantiomers (Table 11), pH not stated
  Detection threshold: 10.0 mmol/kg water

## C[C@@H]1O[C@@H](O[C@H]2[C@H](Oc3cc(O)c4c(c3)O[C@H](c3ccc(O)cc3)CC4=O)O[C@H](CO)[C@@H](O)[C@@H]2O)[C@H](O)[C@H](O)[C@H]1O [Naringine, reference compound]
[4]; Naringine 0.06 mmol/L water, no Glypyridaine
  Bitter taste intensity: 2.5
[4]; Naringine 0.13 mmol/L water, no Glypyridaine
  Bitter taste intensity: 4
[4]; Naringine 0.25 mmol/L water, no Glypyridaine
  Bitter taste intensity: 5

## OCc1ccccc1O[C@@H]1O[C@H](CO)[C@@H](O)[C@H](O)[C@H]1O [Salicine, reference compound]
Bitter taste of salicine; Salicine 0.8 mmol/L water, no Glypyridaine
  Bitter taste intensity: 3
Bitter taste of salicine; Salicine 1.6 mmol/L water, no Glypyridaine
  Bitter taste intensity: 4.5
Bitter taste of salicine; Salicine 3.2 mmol/L water, no Glypyridaine
  Bitter taste intensity: 5

## O=C([O-])CC[n+]1cc(O)ccc1CO [β-Alapyridaine]
[1]
  own taste: tasteless
[1]; pH 7.0
  Taste quality: complete loss of the bitter taste

## H-Gly-Leu-OH [reference compound]
[5]; H-Gly-Leu-OH 30 mmol/L water, no Glypyridaine
  Bitter taste intensity: 2.5
[5]; H-Gly-Leu-OH 60 mmol/L water, no Glypyridaine
  Bitter taste intensity: 3.5
[5]; H-Gly-Leu-OH 120 mmol/L water, no Glypyridaine
  Bitter taste intensity: 5
